# Data: ChEMBL document CHEMBL5223109, “The discovery of BMS-737 as a potent, CYP17 lyase-selective inhibitor for the treatment of castration-resistant prostate cancer” (Bioorg Med Chem Lett, 2022)
# pIC50: −log10 of the molar value.
# Key:
# [1] = Metabolic stability in human liver microsomes assessed as parent compound remaining relative to control; format: ADME, Microsome; note: time not given here
# [2] = Metabolic stability in rat liver microsomes assessed as parent compound remaining; format: ADME, Microsome; note: time not given here
# [3] = Metabolic stability in mouse liver microsomes assessed as parent compound remaining; format: ADME, Microsome; note: time not given here
# Cytochrome P450 1A2 = target: T1, Cytochrome P450 1A2 (Homo sapiens, UniProt P05177); experiment: Inhibition of CYP1A2 (unknown origin); format: ADME
# T1 sequence (P05177 whole entry): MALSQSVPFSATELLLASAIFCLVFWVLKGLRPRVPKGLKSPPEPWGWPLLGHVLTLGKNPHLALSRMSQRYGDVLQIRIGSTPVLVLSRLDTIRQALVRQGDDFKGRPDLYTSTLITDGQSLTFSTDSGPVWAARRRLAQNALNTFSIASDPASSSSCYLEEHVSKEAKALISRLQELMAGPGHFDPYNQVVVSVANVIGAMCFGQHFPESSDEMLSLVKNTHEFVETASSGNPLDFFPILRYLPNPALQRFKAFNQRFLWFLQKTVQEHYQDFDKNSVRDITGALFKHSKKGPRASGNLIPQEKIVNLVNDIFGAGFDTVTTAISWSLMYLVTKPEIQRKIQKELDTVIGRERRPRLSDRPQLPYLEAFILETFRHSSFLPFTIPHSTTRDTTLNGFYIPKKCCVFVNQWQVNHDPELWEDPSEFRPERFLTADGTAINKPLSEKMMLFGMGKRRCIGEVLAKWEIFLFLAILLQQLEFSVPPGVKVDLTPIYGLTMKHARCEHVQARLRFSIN
# [4] = target: T2, Steroid 17-alpha-hydroxylase/17,20 lyase (Homo sapiens, UniProt P05093); experiment: Selectivity ratio for inhibition of human CYP17A1 hydroxylase activity to inhibition of human CYP17A1 lyase activity; format: ADME
# T2 sequence (P05093 whole entry): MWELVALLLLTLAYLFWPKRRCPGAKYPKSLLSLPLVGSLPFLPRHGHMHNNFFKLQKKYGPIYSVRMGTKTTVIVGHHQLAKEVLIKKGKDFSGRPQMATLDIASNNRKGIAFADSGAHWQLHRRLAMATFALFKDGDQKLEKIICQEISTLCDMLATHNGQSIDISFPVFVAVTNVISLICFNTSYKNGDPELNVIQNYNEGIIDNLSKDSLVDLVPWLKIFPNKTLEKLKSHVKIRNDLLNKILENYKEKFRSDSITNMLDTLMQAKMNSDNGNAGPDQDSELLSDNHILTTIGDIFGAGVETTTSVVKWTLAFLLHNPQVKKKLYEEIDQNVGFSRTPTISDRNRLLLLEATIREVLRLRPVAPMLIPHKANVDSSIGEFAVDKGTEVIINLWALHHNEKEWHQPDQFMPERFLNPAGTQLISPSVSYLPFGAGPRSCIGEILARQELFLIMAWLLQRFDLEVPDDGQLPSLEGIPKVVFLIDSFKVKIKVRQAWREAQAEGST
# [5] = target: T2, Steroid 17-alpha-hydroxylase/17,20 lyase; experiment: Inhibition of human CYP17A1; format: ADME
SMILES,Stability [1],Stability [2],Stability [3],pIC50 (Cytochrome P450 1A2),Ratio [4],pIC50 [5]
Cn1cncc1-c1ccnc2c1cnn2-c1ccc(F)cc1,100%,56%,37%,7.24,30,
Cc1ccncc1-c1ccnc2c1cnn2C,,,,< 4.40,,< 6.00
Cc1ccncc1-c1ccnc2c1cnn2-c1ccccc1,73%,4%,7%,6.25,,8.15
Cc1ccncc1-c1ccnc2c1cnn2-c1ccc(F)cc1Cl,74%,0.9%,14%,5.06,3,8.40
Fc1ccc(-n2ncc3c(-c4cncnc4C(F)(F)F)ccnc32)cc1,88%,63%,56%,5.67,,6.85
Nc1ncncc1-c1ccnc2c1cnn2-c1ccc(F)cc1C(F)(F)F,100%,94%,68%,< 4.40,3,7.85
Fc1ccc(-n2ncc3c(-c4cncnc4NC4CC4)ccnc32)cc1,67%,27%,7%,4.96,6,7.34
Cc1ccncc1-c1ccnc2c(-c3ccccc3)csc12,65%,3%,2%,6.60,,8.00
Nc1ncncc1-c1ccnc2c1cnn2-c1ccccn1,100%,100%,70%,< 4.40,,
Cc1ccncc1-c1cccc2c1OCCN2c1ccccc1,62%,0.8%,2%,6.85,,8.10
COc1ccncc1-c1ccnc2c1cnn2-c1ccc(F)cc1,86%,32%,58%,6.14,10,7.96
Fc1ccc(-n2ncc3c(-c4cncn5cccc45)ccnc32)cc1,72%,12%,1%,5.63,13,< 6.00
Cc1ccncc1-c1ccnc2c1cnn2CC(F)(F)F,92%,30%,41%,4.95,12,
Cc1ccncc1-c1ccnn2c(-c3ccccc3)cnc12,100%,47%,26%,6.50,,
Nc1ccncc1-c1ccnc2c1cnn2-c1ccc(F)cc1,99%,0.2%,3%,4.57,7,8.30
Cc1ccncc1-c1cccc2c(-c3ccccc3)csc12,84%,2%,3%,6.87,,8.52
COc1cccc(-n2ncc3c(-c4cnccc4C)ccnc32)c1,21%,6%,37%,5.83,,8.52
Fc1ccc(-n2ncc3c(-c4cncnc4N4CC(F)(F)C4)ccnc32)cc1,85%,35%,62%,< 4.40,3,8.40
Nc1ncncc1-c1ccnc2c1cnn2-c1ncccc1C(F)(F)F,98%,84%,62%,,4,7.96
Fc1ccc(-n2ncc3c(-c4cncnc4NCC(F)(F)F)ccnc32)cc1,42%,40%,3%,5.33,3,8.10

SMILES,Stability [1],Stability [2],Stability [3],pIC50 (Cytochrome P450 1A2),Ratio [4],pIC50 [5]
Nc1ncncc1-c1ccnc2c1cnn2-c1c(F)cc(F)cc1F,,87%,82%,< 4.40,3,8.30
Cc1ccncc1-c1ccnc2c1cnn2-c1ccc(F)cc1F,100%,18%,37%,5.28,19,8.05
Cc1ccncc1-c1ccnc2c1cnn2-c1ncccc1Cl,88%,26%,25%,4.78,7,8.30
Cc1ccncc1-c1ccnc2c1cnn2C(C)(C)C,,16%,15%,5.28,,7.04
Cc1ccncc1-c1cccc2c(-c3ccccc3)cnn12,79%,3%,6%,7.47,,8.70
Cc1ccncc1-c1ccnc2c1cnn2Cc1ccc(F)cc1,,,,5.29,,6.10
Fc1ccc(-n2ncc3c(-c4cncnc4C4CC4)ccnc32)cc1,85%,78%,55%,6.18,13,7.64
COc1ccccc1-n1ncc2c(-c3cnccc3C)ccnc21,88%,1%,2%,4.81,,8.05
Cc1ccncc1-c1ccnc2c1cnn2-c1cccc(F)c1,76%,9%,4%,6.55,36,7.57
Cc1ncncc1-c1ccnc2c1cnn2-c1ccc(F)cc1,,,,5.56,4,
Cc1ccncc1-c1ccnc2c1cnn2-c1ccc(F)c(Cl)c1,85%,37%,2%,6.18,10,7.62
Fc1ccc(-n2ncc3c(-c4cccnc4)ccnc32)cc1,,,,6.67,,7.02
Nc1ncncc1-c1ccnc2c1cnn2-c1ccc(F)cc1F,98%,100%,92%,< 4.40,6,7.96
Nc1ncncc1-c1ccnc2c1cnn2-c1cccc(S(N)(=O)=O)c1,100%,89%,95%,< 4.40,,7.00
Cc1ccncc1-c1ccnc2c1cnn2-c1nccs1,64%,48%,42%,6.21,,7.04
Cc1ccncc1-c1cccc2c(-c3ccccc3)noc12,80%,6%,5%,7.55,,9.00
Cc1ccncc1-c1ccnc2c(-c3ccccc3)noc12,80%,7%,5%,6.49,,8.30
Cc1ccncc1-c1ccnn2c(-c3ccccc3)ccc12,70%,3%,7%,6.74,,8.30
Cc1ccncc1-c1ccnc2c1cnn2-c1ccc(F)cc1,100%,43%,27%,6.42,43,8.22
COc1c(F)cccc1-n1ncc2c(-c3cnccc3C)ccnc21,77%,0.2%,2%,5.32,7,7.85
